One data set has as its system yellow fever virus. It is filed as cell-based.
The subject of data set [1] is VSV. The data set is classed as cell-based.
The next data set relates to a viral challenge. The data set is classed as cell-based. The conditions noted are these: for EC50: read-out: µM of test compounds # (concentration of test compound alone to protect Vero cells against a viral challenge by approximately 50%).
Data set [2] has as its system VSV. It is filed as cell-based. The source holds these as a separate data set.
The conditions of data set [3]: cited from earlier work.
The subject of data set [4] is kunjin virus. The data set is classed as cell-based.
Data set [5] deals with kunjin virus. It is filed as cell-based. The source holds these as a separate data set.
The next data set deals with dengue virus. The data set is classed as cell-based.

The values that follow come from EP1154787B1 (priority 1999, dated 2000).

“And” between values parts separate entries of the source, which are not always exact repeats. Equal entries are not always repeated. “Also recorded” adds a separate entry of the source. Structures can show the parent of a compound that is named as a salt. Where two headings read alike, the source gives them in different places.

With `NC(=O)c1csc([C@@H]2O[C@H](CO)[C@@H](O)[C@H]2O)n1` [Tiazofurin, 2-β-D-ribofuranosylthiazole-4-carboxamide], the CI with yellow fever virus was 0.85 and 0.68 and 0.51 and 0.87.

For the molecule `Nc1nccc2c1ncn2[C@@H]1C=C(CO)[C@@H](O)[C@H]1O` [3-DAN, 3-deazaneplanocin A], the CI with VSV [1] was 0.88 and 0.85 and 0.79 and 0.80 and 0.92 and 0.90 and 0.84.

Turning to `C#Cc1c(C(N)=O)ncn1[C@@H]1O[C@H](CO)[C@@H](O)[C@H]1O` [EICAR, 5-ethynyl-1-β-D-ribofuranosylimidazole-4-carboxamide], in the data set with a viral challenge, the “Fold enhancement of antiviral activity” value is on record as 2 fold and the EC50 was approximately 1 µM.

With `COc1c(C)c2c(c(O)c1C/C=C(\C)CCC(=O)O)C(=O)OC2` [mycophenolic acid], the concentration for half-maximal inhibition (IC50) in the data set with VSV [1] (read-out: MPA IC50) was 0.2 µM. Also, in the data set on a viral challenge, the “Fold enhancement of antiviral activity” value is 3 fold and the EC50 is approximately 0.1 µM. Besides, the CI with VSV [2] was 0.48 and 0.46 and 0.56.

With `Nc1ccn([C@@H]2C=C(CO)[C@@H](O)[C@H]2O)c(=O)n1` [CPE-C, cyclopentenyl cytosine], the “deaths with refractory hypotension” value in data set [3] (hypotensive patients at 4.7 mg/m^2 per hour of CPE-C) is listed as “Two of the four hypotensive patients died”. Further, the hypotension result in data set [3] (patients receiving ≤2.5 mg/m^2 per h CPE-C) is “Hypotension was not seen; also recorded: no hypotension was observed”; in data set [3] (patients who received 4.7 mg/m^2 per hour of CPE-C, 24 to 48 hours after completion of infusion), “Four of the eleven patients”. Further, the “enhancement of the antiviral activity of interferon” value in the data set on kunjin virus [4] was 10 fold and 5 fold. Also, the CI in the data set with VSV [1] is 0.98 and 0.81 and 0.80 and 0.97 and 0.75 and 0.79 and 0.76 and 0.74. For the same molecule, the “Fold enhancement of antiviral activity” value in the data set with a viral challenge is given as 10 fold. The EC50 in the data set with a viral challenge was approximately 0.1 µM.

Turning to `NC(=O)c1c[se]c([C@@H]2O[C@H](CO)[C@@H](O)[C@H]2O)n1` [Selenofurin, 2-β-D-ribofuranosylselenazole-4-carboxamide], the CI with yellow fever virus was 0.94 and 0.65 and 0.53 and 0.62 and 0.49.

On to `O=c1cnn([C@@H]2O[C@H](CO)[C@@H](O)[C@H]2O)c(=O)[nH]1` [6-AU, 6-azauridine], for which the CI in the data set with VSV [1] was 0.49 and 0.59.

In the data set on kunjin virus [5], `NC12CC3CC(CC(C3)C1)C2` [amantadine, amantadine hydrochloride] gave a CI of 0.76. Also, the CI in the data set on VSV [1] (hydrochloride) was 0.79 and 0.76 and 0.62 and 0.66 and 0.87. In the data set with a viral challenge, the “Fold enhancement of antiviral activity” value was found to be 50 fold and the EC50 was approximately 1 µM.

On to `Nc1ncnc2c1ncn2[C@@H]1C=C(CO)[C@@H](O)[C@H]1O` [Neplanocin A, neplanocin A], for which the CI in the data set on yellow fever virus was 0.63 and 0.71 and 0.59; in the data set on VSV [1], 0.80 and 0.56 and 0.40 and 0.67 and 0.71.

For `CCc1c(CNc2ccc(C(=O)NC(CC(=O)O)C(=O)O)cc2)ccc2nc(N)nc(N)c12` (stereo not drawn) [NSC 184692], the “enhanced the anti-viral effect of human IFNβ” value in the data set with dengue virus stood at 10 fold. Also, the EC50 in the data set with dengue virus (read-out: ED50 against dengue virus) is 0.00012 µM.

Regarding `CCc1nc(N)nc(N)c1-c1ccc(Cc2ccccc2)c([N+](=O)[O-])c1` [NSC 382046], the CI is 0.99 and 0.96 and 0.83 and 0.75 and 0.70 in the data set with kunjin virus [5]; 0.758 and 0.672 in the data set with dengue virus.

In the case of `NC(=O)c1[nH]nc([C@@H]2O[C@H](CO)[C@@H](O)[C@H]2O)c1O` [NSC 143095], in the data set on yellow fever virus, the CI is 0.71 and 0.57 and 0.69.

`Cc1nc(N)nc(N)c1-c1ccc(Cl)c(Cl)c1` [NSC 7364]: in the data set on dengue virus, the CI was 0.834 and 0.813 and 0.979. Further, in the data set with dengue virus (read-out: NSC 7364 IC50), the IC50 stood at 0.372 µM.

By IC50 is commonly meant the concentration at which inhibition is half-maximal.
